The series has as its system rodent lifetime carcinogenesis bioassay, tumor incidence TD50. Briefly: carcinogenic potency in animals, long-term in vivo studies, CPDB compilation (AID 1745844).
Setting [1] is: mouse, strain B6AKF1, females, oral dosing, site: any site (literature study), lesion: several types, types named in the paper, dosed 76 weeks, study length 76 weeks.
[2] abbreviates: mouse, strain B6AKF1, females, oral dosing, site: liver, lesion: hepatoma, dosed 76 weeks, study length 76 weeks.
[3] abbreviates: mouse, strain B6AKF1, males, oral dosing, site: any site (literature study), lesion: several types, types named in the paper, dosed 76 weeks, study length 76 weeks.
Where [4] appears, read: mouse, strain B6AKF1, males, oral dosing, site: liver, lesion: hepatoma, dosed 76 weeks, study length 76 weeks.
Where [5] appears, read: mouse, strain B6AKF1, males, oral dosing, site: lung, lesion: adenoma, dosed 76 weeks, study length 76 weeks.
The mark [6] stands for this setting: mouse, strain B6C3F1, females, oral dosing, site: any site (literature study), lesion: several types, types named in the paper, dosed 76 weeks, study length 76 weeks.
Setting [7] is: mouse, strain B6C3F1, females, oral dosing, site: liver, lesion: hepatoma, dosed 76 weeks, study length 76 weeks.
Where [8] appears, read: mouse, strain B6C3F1, males, oral dosing, site: any site (literature study), lesion: several types, types named in the paper, dosed 76 weeks, study length 76 weeks.
The mark [9] stands for this setting: mouse, strain B6C3F1, males, oral dosing, site: liver, lesion: hepatoma, dosed 76 weeks, study length 76 weeks.
Where [10] appears, read: mouse, strain B6C3F1, males, oral dosing, site: lung, lesion: adenoma, dosed 76 weeks, study length 76 weeks.

The source made the active and inactive calls. The rule behind the calls is not given here.

For the molecule `CN(C)CCC(c1ccc(Cl)cc1)c1ccccn1` (centres undefined), the carcinogen call is, setting by setting: (mouse, strain B6C3F1, females, by gavage, site: any site (literature study), lesion: several types, types named in the paper, dosed 103 weeks, study length 104 weeks) “negative (inactive)”; (rat, strain Fischer 344, females, by gavage, site: any site (literature study), lesion: several types, types named in the paper, dosed 103 weeks, study length 104 weeks) “negative (inactive)”; (rat, strain Fischer 344, females, in feed, site: liver, lesion: neoplastic nodule, dosed 106 weeks, study length 128 weeks) “negative (inactive)”; (rat, strain Fischer 344, males, by gavage, site: any site (literature study), lesion: several types, types named in the paper, dosed 103 weeks, study length 104 weeks) “negative (inactive)”; (rat, strain Fischer 344, males, in feed, site: liver, lesion: neoplastic nodule, dosed 106 weeks, study length 128 weeks) “negative (inactive)”. Moreover, the TD50 is 84 mg/kg/day (inactive) (mouse, strain B6C3F1, males, by gavage, site: adrenal capsule, lesion: adenoma, NOS, dosed 103 weeks, study length 104 weeks); 54.1 mg/kg/day (mouse, strain B6C3F1, males, by gavage, site: any site (literature study), lesion: several types, types named in the paper, dosed 103 weeks, study length 104 weeks); 101 mg/kg/day (mouse, strain B6C3F1, males, by gavage, site: liver, lesion: hepatocellular adenoma + hepatocellular carcinoma + neoplastic nodule, dosed 103 weeks, study length 104 weeks); 94.7 mg/kg/day (mouse, strain B6C3F1, males, by gavage, site: subcutaneous tissue, lesion: fibrosarcoma + fibroma + neurofibrosarcoma + sarcoma, NOS, dosed 103 weeks, study length 104 weeks); 95.2 mg/kg/day (mouse, strain B6C3F1, males, by gavage, site: subcutaneous tissue, lesion: fibrosarcoma + neurofibrosarcoma + sarcoma, NOS, dosed 103 weeks, study length 104 weeks); 140 mg/kg/day (mouse, strain B6C3F1, males, by gavage, site: subcutaneous tissue, lesion: fibrosarcoma, dosed 103 weeks, study length 104 weeks). Also, the TD50 amounted to 3180 mg/kg/day (rat, strain Fischer 344, females, by gavage, site: liver, lesion: hepatocellular adenoma + hepatocellular carcinoma + neoplastic nodule, dosed 103 weeks, study length 104 weeks) and 208 mg/kg/day (rat, strain Fischer 344, males, by gavage, site: liver, lesion: hepatocellular adenoma + hepatocellular carcinoma + neoplastic nodule, dosed 103 weeks, study length 104 weeks).
For the molecule `[S-]c1nc2ccccc2s1.[S-]c1nc2ccccc2s1.[Zn+2]`, the carcinogen call is “negative (inactive)” under setting [1]; “negative (inactive)” under setting [2]; “negative (inactive)” (mouse, strain B6AKF1, females, oral dosing, site: lung, lesion: adenoma, dosed 76 weeks, study length 76 weeks); “negative (inactive)” under setting [3]; “negative (inactive)” under setting [4]; “negative (inactive)” under setting [5]. In addition, the carcinogen call runs as follows: under setting [7], “negative (inactive)”; (mouse, strain B6C3F1, females, oral dosing, site: lung, lesion: several types, types named in the paper, dosed 76 weeks, study length 76 weeks) “negative (inactive)”. The TD50 under setting [6] was 2790 mg/kg/day (inactive), the TD50 under setting [8] is 319 mg/kg/day (inactive), the TD50 under setting [9] is 388 mg/kg/day (inactive) and the TD50 under setting [10] is 2750 mg/kg/day (inactive).
Turning to `Cc1cc(OC(=O)N(C)C)n(C(C)C)n1`, the TD50 runs as follows: under setting [1], 0.023 mg/kg/day (inactive); under setting [3], 0.0124 mg/kg/day (inactive); under setting [4], 0.0419 mg/kg/day (inactive); under setting [5], 0.0147 mg/kg/day (inactive); under setting [8], 0.0413 mg/kg/day (inactive); under setting [10], 0.0156 mg/kg/day (inactive). Besides, the carcinogen call is “negative (inactive)” under setting [2]; “negative (inactive)” (mouse, strain B6AKF1, females, oral dosing, site: lung, lesion: several types, types named in the paper, dosed 76 weeks, study length 76 weeks); “negative (inactive)” under setting [6]; “negative (inactive)” under setting [7]; “negative (inactive)” (mouse, strain B6C3F1, females, oral dosing, site: lung, lesion: adenoma, dosed 76 weeks, study length 76 weeks); “negative (inactive)” under setting [9].
As to `Clc1ccc(Sc2cc(Cl)c(Cl)cc2Cl)cc1`, the carcinogen call is “negative (inactive)” (rat, strain Wistar, females, in feed, site: liver, lesion: one or several types, types not named, dosed 104 weeks, study length 104 weeks); “negative (inactive)” (rat, strain Wistar, females, in feed, site: liver, lesion: one or several types, types not named, dosed 116 weeks, study length 116 weeks); “negative (inactive)” (rat, strain Wistar, males, in feed, site: liver, lesion: one or several types, types not named, dosed 104 weeks, study length 104 weeks). For the same molecule, under “rat, strain Wistar, males, in feed, site: liver, lesion: hepatoma, dosed 116 weeks, study length 116 weeks”, the TD50 was 4590 mg/kg/day (inactive).
In the case of `ClC(Cl)=C(Cl)Cl`, the TD50 is, setting by setting: (mouse, strain B6C3F1, females, by gavage, site: any site (literature study), lesion: several types, types named in the paper, dosed 78 weeks, study length 90 weeks) 98.1 mg/kg/day; (mouse, strain B6C3F1, females, by gavage, site: liver, lesion: hepatocellular adenoma + hepatocellular carcinoma + neoplastic nodule, dosed 78 weeks, study length 90 weeks) 75.6 mg/kg/day; (mouse, strain B6C3F1, females, by gavage, site: liver, lesion: hepatocellular carcinoma, dosed 78 weeks, study length 90 weeks) 75.6 mg/kg/day; (mouse, strain B6C3F1, females, by gavage, site: lung, lesion: alveolar/bronchiolar adenoma + alveolar/bronchiolar carcinoma, dosed 78 weeks, study length 90 weeks) 2950 mg/kg/day; (mouse, strain B6C3F1, females, inhaled, site: any site (literature study), lesion: several types, types named in the paper, dosed 103 weeks, study length 104 weeks) 211 mg/kg/day; (mouse, strain B6C3F1, females, inhaled, site: liver, lesion: hepatocellular adenoma + hepatocellular carcinoma + neoplastic nodule, dosed 103 weeks, study length 104 weeks) 188 mg/kg/day. The TD50 reads like this: (mouse, strain B6C3F1, females, inhaled, site: liver, lesion: hepatocellular adenoma + hepatocellular carcinoma, dosed 103 weeks, study length 104 weeks) 188 mg/kg/day; (mouse, strain B6C3F1, females, inhaled, site: liver, lesion: hepatocellular carcinoma, dosed 103 weeks, study length 104 weeks) 200 mg/kg/day; (mouse, strain B6C3F1, males, by gavage, site: any site (literature study), lesion: several types, types named in the paper, dosed 78 weeks, study length 90 weeks) 160 mg/kg/day; (mouse, strain B6C3F1, males, by gavage, site: liver, lesion: hepatocellular adenoma + hepatocellular carcinoma + neoplastic nodule, dosed 78 weeks, study length 90 weeks) 123 mg/kg/day; (mouse, strain B6C3F1, males, by gavage, site: liver, lesion: hepatocellular carcinoma, dosed 78 weeks, study length 90 weeks) 123 mg/kg/day; (mouse, strain B6C3F1, males, inhaled, site: any site (literature study), lesion: several types, types named in the paper, dosed 103 weeks, study length 104 weeks) 225 mg/kg/day. Further, the TD50 is, setting by setting: (mouse, strain B6C3F1, males, inhaled, site: liver, lesion: hepatocellular adenoma + hepatocellular carcinoma + neoplastic nodule, dosed 103 weeks, study length 104 weeks) 190 mg/kg/day; (mouse, strain B6C3F1, males, inhaled, site: liver, lesion: hepatocellular adenoma + hepatocellular carcinoma, dosed 103 weeks, study length 104 weeks) 190 mg/kg/day; (mouse, strain B6C3F1, males, inhaled, site: liver, lesion: hepatocellular adenoma, dosed 103 weeks, study length 104 weeks) 668 mg/kg/day; (mouse, strain B6C3F1, males, inhaled, site: liver, lesion: hepatocellular carcinoma, dosed 103 weeks, study length 104 weeks) 162 mg/kg/day; (mouse, strain B6C3F1, males, inhaled, site: lung, lesion: alveolar/bronchiolar adenoma + alveolar/bronchiolar carcinoma, dosed 103 weeks, study length 104 weeks) 6050 mg/kg/day; (mouse, strain B6C3F1, males, inhaled, site: mesenteric lymph node + multiple organs + spleen + subcutaneous tissue, lesion: malignant lymphoma, NOS, dosed 103 weeks, study length 104 weeks) 681 mg/kg/day. Further, the TD50 is 560 mg/kg/day (mouse, strain Crj:BDF1, females, inhaled, site: liver, lesion: hepatocellular adenoma, dosed 104 weeks, study length 104 weeks); 1420 mg/kg/day (mouse, strain Crj:BDF1, females, inhaled, site: liver, lesion: hepatocellular carcinoma, dosed 104 weeks, study length 104 weeks); 396 mg/kg/day (mouse, strain Crj:BDF1, females, inhaled, site: liver, lesion: several types, types named in the paper, dosed 104 weeks, study length 104 weeks); 2330 mg/kg/day (mouse, strain Crj:BDF1, males, inhaled, site: Harderian gland, lesion: adenoma, dosed 104 weeks, study length 104 weeks); 602 mg/kg/day (mouse, strain Crj:BDF1, males, inhaled, site: liver, lesion: hepatocellular adenoma, dosed 104 weeks, study length 104 weeks); 555 mg/kg/day (mouse, strain Crj:BDF1, males, inhaled, site: liver, lesion: hepatocellular carcinoma, dosed 104 weeks, study length 104 weeks). For the same molecule, the TD50 by setting is: (mouse, strain Crj:BDF1, males, inhaled, site: liver, lesion: several types, types named in the paper, dosed 104 weeks, study length 104 weeks) 257 mg/kg/day; (rat, strain F344/DuCrj, females, inhaled, site: spleen, lesion: mononuclear-cell leukemia, dosed 104 weeks, study length 104 weeks) 1080 mg/kg/day; (rat, strain F344/DuCrj, males, inhaled, site: liver, lesion: hepatocellular adenoma, dosed 104 weeks, study length 104 weeks) 28300 mg/kg/day; (rat, strain F344/DuCrj, males, inhaled, site: spleen, lesion: mononuclear-cell leukemia, dosed 104 weeks, study length 104 weeks) 257 mg/kg/day; (rat, strain Fischer 344, females, inhaled, site: any site (literature study), lesion: several types, types named in the paper, dosed 103 weeks, study length 104 weeks) 869 mg/kg/day; (rat, strain Fischer 344, females, inhaled, site: multiple organs + spleen, lesion: mononuclear-cell leukemia, dosed 103 weeks, study length 104 weeks) 287 mg/kg/day. Besides, the TD50 by setting is: (rat, strain Fischer 344, males, inhaled, site: any site (literature study), lesion: several types, types named in the paper, dosed 103 weeks, study length 104 weeks) 77.7 mg/kg/day; (rat, strain Fischer 344, males, inhaled, site: kidney + liver + multiple organs + spleen, lesion: tubular-cell adenoma + tubular-cell adenocarcinoma + mononuclear-cell leukemia, dosed 103 weeks, study length 104 weeks) 90.8 mg/kg/day; (rat, strain Fischer 344, males, inhaled, site: kidney, lesion: tubular-cell adenoma + tubular-cell adenocarcinoma, dosed 103 weeks, study length 104 weeks) 504 mg/kg/day; (rat, strain Fischer 344, males, inhaled, site: liver + multiple organs + spleen, lesion: mononuclear-cell leukemia, dosed 103 weeks, study length 104 weeks) 101 mg/kg/day; (rat, strain Fischer 344, males, inhaled, site: liver, lesion: hepatocellular adenoma + hepatocellular carcinoma + neoplastic nodule, dosed 103 weeks, study length 104 weeks) 368 mg/kg/day; (rat, strain Fischer 344, males, inhaled, site: testis, lesion: interstitial-cell tumor, dosed 103 weeks, study length 104 weeks) 68.6 mg/kg/day. In addition, the TD50 is, setting by setting: (rat, strain Osborne-Mendel, females, by gavage, site: any site (literature study), lesion: several types, types named in the paper, dosed 78 weeks, study length 110 weeks) 1710 mg/kg/day; (rat, strain Osborne-Mendel, males, by gavage, site: any site (literature study), lesion: several types, types named in the paper, dosed 78 weeks, study length 112 weeks) 3020 mg/kg/day.

Values taken from PubChem BioAssay AID1745844 (Carcinogenic Potency Database (CPDB), 2022).
